Results: patent publication US20250186379A1, “METHODS AND AGENTS FOR DECREASING INSULIN RESISTANCE” (Whitehead Institute for Biomedical Research, priority 2021, published 2025)
Entries after “also recorded” stand apart in the source; their conditions may differ. Where two headings read alike, the source gives them in different places.

Experiments:
HepG2 cells = assay: Stable isotope tracing for lipogenesis in HepG2 cells; format: cell-based, human
Protocol: To wash out insulin, cells were washed with EMEM (ATCC 30-2003) seven times, including: three quick washes, three 5-minute washes and a long 20 minute-wash in EMEM at 37° C. Cells were then cultured in EMEM supplemented with 1 mM Sodium acetate-^13C2(Sigma Aldrich, 282014) and with either 0 nM insulin or 1 nM insulin for 36 hours. Media was replenished after 24 hours. Cells were then processed for metabolite isolation (see below).
Metabolite isolation from HepG2 cells: cells were washed in ice-cold PBS (Life Technologies, AM9625), 500 μl of cold 80% MeOH (shared by the Metabolite Profiling Core Facility) was added per well of a 6-well plate and the plate was placed at −80° C. for at least 15 minutes. Following the −80 incubation, the plate was scraped on dry ice and the solution was transferred to a 1.5 ml tube and then vortexed for 5 minutes. To remove cellular debris, the samples were centrifuged at maximum speed for 10 minutes at 4° C. and the supernatant was transferred to a new 1.5 mL tube on dry ice. To remove solvents, the samples were lyophilized using Refrigerated CentriVap Benchtop Vacuum Concentrator connected to a CentriVap-105 Cold Trap (Labconco). Metabolite pellets were re-suspended in LC-MS grade water (ThermoFisher) and vortexed for 10 minutes at 4° C. Samples were centrifuged at 16,000 g for 10 minutes at 4° C. and supernatant was moved into LC-MS vials. […]

[1] = test system: lipogenic and gluconeogenesis genes (FASN, PCK1); assay: Expression of lipogenic and gluconeogenesis genes (RNA-seq, RT-qPCR) in HepG2 cells; format: cell-based, human
Protocol: RNA was extracted using TRIzol™ reagent (Thermo Fisher Scientific, 15596026) following the manufacturer's instructions. cDNA synthesis was performed using qScript cDNA Supermix (QuantaBio, 95048-500) according to the manufacturer's instructions, using 1000 ng RNA as starting material.
qPCR was performed on a Thermo Fisher Scientific QuantStudio 6 machine using Fast SYBR™ Green Master Mix (Thermo Fisher, 4385618) and primers (listed below) according to the manufacturer's instructions. Expression data is presented after calculating the relative expression compared with the housekeeping gene RPLP0, using the equation Relative Quantification (RQ)=100/(2^(Target Gene Ct—RPLP0 Ct). When data is reported relative to a sample condition, the condition of reference was set as 1 and the data of the other conditions were reported as a ratio (condition/condition of reference).
RNA sequencing was performed by the Whitehead Institute Genome Technology Core. Libraries were prepared using the KAPA HyperPrep stranded RNA kit (Roche, KK8540) following manufacturer's instructions. Samples were sequenced on a HiSeq2500 in High-Output mode generating 50 bases, single-end reads.
RNA-sequencing (RNA-seq) bioinformatics analysis was performed on the Whitehead High-Performance Computing Facility using the nf-core RNA-seq pipeline v1.4.2^13 with Nextflow v20.04.1. Quality control of .fastq files was performed with FastQC v0.11.8. The reads were single-end and the strandedness was set to reverse. Low quality sequences were trimmed using Trim Galore!v0.6.4. Alignment was performed against the hg19 genome assembly using STAR v2.6.1d^17 and duplicates were marked using Picard MarkDuplicates v2.21.1. Quantification of transcripts was performed using featureCounts v1.6.4^18. Differential expression analysis was performed using edgeR v3.26.5^19. deepTools v3.3.1^20, dupRadar v1.14.0^21, Qualimap v.2.2.2-dev^22, and MultiQC v1.7 were used for quality control. […]

[2] = cited from earlier work
IR condensates = assay: Immunofluorescence for IR in human liver tissue from donors; format: in vivo; details: liver tissue of donors with T2D treated with metformin vs T2D and healthy donors
Excerpt: (§1) Images were then processed using Fiji/ImageJ v2.1.0/153c.
as §1

[3] = cells exposed to pathologic levels (3 nM) of insulin for two days
[4] = insulin-sensitive HepG2 cells, 3 nM insulin 4 hours

insulin: insulin (Sigma Aldrich, I9278-5ML) used for acute stimulation and chronic physiological or pathological exposure
lipogenesis after insulin stimulation (HepG2 cells; [3]): unchanged
lipogenesis (HepG2 cells; insulin-sensitive HepG2 cells, 1 nM insulin 36 hours): increased lipogenesis
expression of the lipogenic gene FASN after insulin stimulation [1, 3]: unchanged
expression of gluconeogenesis genes [1, 4]: downregulation of gluconeogenesis genes
expression of lipogenic genes [1, 4]: upregulation of lipogenic genes

CN(C)C(=N)N=C(N)N [metformin, reference compound]
concentration of metformin in the plasma of T2D patients ([2]; T2D patients (Example 1)): ~12.5 µM
concentration of metformin in the plasma of T2D patients ([2]; T2D patients (Example 2, refs 58-60)): ~12.5 µM
IR signal in condensates/puncta of hepatocytes (IR condensates): increased IR signals in condensates that approximated those seen in tissue from healthy donors; also recorded: IR punctate signals similar to those observed in healthy tissues
